Data reported in patent US12486273B2 (Hoffmann-La Roche Inc., priority 2019, dated 2025).
Blank lines part the entries; values can stand above or below the compound they belong to.

How the values were obtained:
[1] = target: human TLR7 (Homo sapiens (Human), UniProt Q9NYK1); experiment: HEK293-Blue-hTLR-7 cells assay; type: cell-based; conditions: HEK293-Blue-hTLR7 cells, R848 stimulation, 20 hrs, SEAP reporter; read-out: HEK/hTLR7 IC50
Source text: HEK293-BLUE-hTLR-7 CELLS ASSAY:
(§1) A stable HEK293-Blue-hTLR-7 cell line was purchased from InvivoGen (Cat. #: hkb-htlr7, San Diego, California, USA). These cells were originally designed for studying the stimulation of human TLR7 by monitoring the activation of NF-κB. A SEAP (secreted embryonic alkaline phosphatase) reporter gene was placed under the control of the IFN-β minimal promoter fused to five NF-κB and AP-1-binding sites. The SEAP was induced by activating NF-κB and AP-1 via stimulating HEK-Blue hTLR7 cells with TLR7 ligands. Therefore the reporter expression was declined by TLR7 antagonist under the stimulation of a ligand, such as R848 (Resiquimod), for incubation of 20 hrs. The cell culture supernatant SEAP reporter activity was determined using QUANTI-Blue™ kit (Cat. #: rep-qb1, Invivogen, San Diego, Ca, USA) at a wavelength of 640 nm, a detection medium that turns purple or blue in the presence of alkaline phosphatase.
(§2) HEK293-Blue-hTLR7 cells were incubated at a density of 250,000˜450,000 cells/mL in a volume of 170 μL in a 96-well plate in Dulbecco's Modified Eagle's medium (DMEM) containing 4.5 g/L glucose, 50 U/mL penicillin, […], […], 2 mM L-glutamine, 10% (v/v) heat-inactivated fetal bovine serum with addition of 20 μL test compound in a serial dilution in the presence of final DMSO at 1% and 10 μL of 20 μM R848 in above DMEM, perform incubation under 37° C. in a CO2 incubator for 20 hrs. Then 20 μL of the supernatant from each well was incubated with 180 μL Quanti-blue substrate solution at 37° C. for 2 hrs and the absorbance was read at 620-655 nm using a spectrophotometer. The signaling pathway that TLR7 activation leads to downstream NF-κB activation has been widely accepted, and therefore similar reporter assay was modified for evaluating TLR7 antagonist.

[2] = target: human TLR8 (Homo sapiens (Human), UniProt Q9NR97); experiment: HEK293-Blue-hTLR-8 cells assay; type: cell-based; conditions: HEK293-Blue-hTLR8 cells, R848 stimulation, 20 hrs, SEAP reporter; read-out: HEK/hTLR8 IC50
Chain of human TLR8 (Q9NR97 27-1041): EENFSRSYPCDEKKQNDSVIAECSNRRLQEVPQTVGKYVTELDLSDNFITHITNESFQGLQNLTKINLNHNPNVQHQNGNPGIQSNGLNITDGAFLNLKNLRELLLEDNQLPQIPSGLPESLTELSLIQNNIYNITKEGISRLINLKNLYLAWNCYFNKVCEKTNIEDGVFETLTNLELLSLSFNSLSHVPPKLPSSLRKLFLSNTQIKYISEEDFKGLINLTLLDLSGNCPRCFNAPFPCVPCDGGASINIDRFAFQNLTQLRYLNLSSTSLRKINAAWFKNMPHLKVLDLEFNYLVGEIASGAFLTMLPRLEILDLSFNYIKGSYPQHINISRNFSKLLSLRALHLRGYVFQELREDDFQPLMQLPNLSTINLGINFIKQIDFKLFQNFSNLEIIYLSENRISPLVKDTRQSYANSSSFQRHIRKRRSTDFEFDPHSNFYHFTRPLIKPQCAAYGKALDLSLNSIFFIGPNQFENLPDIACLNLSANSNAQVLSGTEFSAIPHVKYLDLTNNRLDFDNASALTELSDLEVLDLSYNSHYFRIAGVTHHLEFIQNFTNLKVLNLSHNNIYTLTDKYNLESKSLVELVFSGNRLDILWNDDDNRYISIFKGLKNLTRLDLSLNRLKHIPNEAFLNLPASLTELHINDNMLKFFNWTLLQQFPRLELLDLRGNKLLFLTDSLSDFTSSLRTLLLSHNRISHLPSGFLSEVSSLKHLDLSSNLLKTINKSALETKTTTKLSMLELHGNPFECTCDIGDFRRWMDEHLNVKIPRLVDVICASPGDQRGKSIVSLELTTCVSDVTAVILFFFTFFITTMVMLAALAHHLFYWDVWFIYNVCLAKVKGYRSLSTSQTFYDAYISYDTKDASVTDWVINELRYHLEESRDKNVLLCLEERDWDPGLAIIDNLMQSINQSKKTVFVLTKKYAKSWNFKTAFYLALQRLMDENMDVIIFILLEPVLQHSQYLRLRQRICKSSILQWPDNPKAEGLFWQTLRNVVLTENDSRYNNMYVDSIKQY
Source text: HEK293-Blue-hTLR-8 Cells Assay:
as §1, with “HEK293-Blue-hTLR-8” for “HEK293-Blue-hTLR-7”, “hkb-htlr8,” for “hkb-htlr7,”, “TLR8” for “TLR7”, “hTLR8” for “hTLR7”, “R848,” for “R848 (Resiquimod),”, “rep-Qb1,” for “rep-qb1,”
HEK293-Blue-hTLR8 cells were incubated at a density of 250,000-450,000 cells/mL in a volume of 170 μL in a 96-well plate in Dulbecco's Modified Eagle's medium (DMEM) containing 4.5 g/L glucose, 50 U/mL penicillin, […], […], 2 mM L-glutamine, 10% (v/v) heat-inactivated fetal bovine serum with addition of 20 μL test compound in a serial dilution in the presence of final DMSO at 1% and 10 μL of 60 μM R848 in above DMEM, perform incubation under 37° C. in a CO2 incubator for 20 hrs. Then 20 μL of the supernatant from each well was incubated with 180 μL Quanti-blue substrate solution at 37° C. for […] and the absorbance was read at 620˜655 nm using a spectrophotometer. The signaling pathway that TLR8 activation leads to downstream NF-κB activation has been widely accepted, and therefore similar reporter assay was modified for evaluating TLR8 antagonist.

[3] = target: human TLR9 (Homo sapiens (Human), UniProt Q9NR96); experiment: HEK293-Blue-hTLR-9 cells assay; type: cell-based; conditions: HEK293-Blue-hTLR9 cells, ODN2006 stimulation, 20 hrs, SEAP reporter; read-out: HEK/hTLR9 IC50
Chain of human TLR9 (Q9NR96 26-1032): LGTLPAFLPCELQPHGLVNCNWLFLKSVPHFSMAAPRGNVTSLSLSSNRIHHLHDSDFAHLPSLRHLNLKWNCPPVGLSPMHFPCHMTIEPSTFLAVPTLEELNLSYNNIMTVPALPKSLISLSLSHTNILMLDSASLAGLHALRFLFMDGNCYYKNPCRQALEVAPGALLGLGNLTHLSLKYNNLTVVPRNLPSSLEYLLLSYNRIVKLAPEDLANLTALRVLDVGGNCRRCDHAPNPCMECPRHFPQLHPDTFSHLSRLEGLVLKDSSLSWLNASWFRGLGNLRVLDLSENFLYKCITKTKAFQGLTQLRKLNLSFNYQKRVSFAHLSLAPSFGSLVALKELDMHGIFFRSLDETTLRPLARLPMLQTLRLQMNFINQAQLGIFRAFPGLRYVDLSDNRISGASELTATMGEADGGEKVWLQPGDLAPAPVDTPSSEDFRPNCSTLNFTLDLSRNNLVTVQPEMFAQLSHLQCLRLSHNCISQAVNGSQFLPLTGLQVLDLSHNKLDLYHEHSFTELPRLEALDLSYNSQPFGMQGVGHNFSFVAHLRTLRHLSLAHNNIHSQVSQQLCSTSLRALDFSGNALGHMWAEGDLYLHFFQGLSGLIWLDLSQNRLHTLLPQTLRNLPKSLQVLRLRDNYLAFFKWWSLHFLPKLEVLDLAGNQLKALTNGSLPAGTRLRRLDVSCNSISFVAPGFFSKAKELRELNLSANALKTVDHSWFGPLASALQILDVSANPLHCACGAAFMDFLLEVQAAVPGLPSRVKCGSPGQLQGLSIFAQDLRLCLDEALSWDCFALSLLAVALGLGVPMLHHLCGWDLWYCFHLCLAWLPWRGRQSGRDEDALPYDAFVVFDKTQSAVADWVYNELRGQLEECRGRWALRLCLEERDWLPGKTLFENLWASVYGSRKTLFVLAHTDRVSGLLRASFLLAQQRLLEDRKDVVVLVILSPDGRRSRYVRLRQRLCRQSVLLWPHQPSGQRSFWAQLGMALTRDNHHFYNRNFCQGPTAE
Source text: HEK293-Blue-hTLR-9 Cells Assay:
A stable HEK293-Blue-hTLR-9 cell line was purchased from InvivoGen (Cat. #: hkb-htlr9, San Diego, California, USA). These cells were originally designed for studying the stimulation of human TLR9 by monitoring the activation of NF-κB. A SEAP (secreted embryonic alkaline phosphatase) reporter gene was placed under the control of the IFN-β minimal promoter fused to five NF-κB and AP-1-binding sites. The SEAP was induced by activating NF-κB and AP-via stimulating HEK-Blue hTLR9 cells with TLR9 ligands. Therefore the reporter expression was declined by TLR9 antagonist under the stimulation of a ligand, such as ODN2006 (Cat. #: tlrl-2006-1, Invivogen, San Diego, California, USA), for incubation of 20 hrs. The cell culture supernatant SEAP reporter activity was determined using QUANTI-Blue™ kit (Cat. #: rep-qb1, Invivogen, San Diego, California, USA) at a wavelength of 640 nm, a detection medium that turns purple or blue in the presence of alkaline phosphatase.
as §2, with “HEK293-Blue-hTLR9 cells” for “HEK293-Blue-hTLR7 cells”, “μM ODN2006” for “μM R848”, “2 h” for “2 hrs”, “that TLR9” for “that TLR7”, “evaluating TLR9” for “evaluating TLR7”

[4] = Human microsomal stability assay; type: in vitro ADME; conditions: human liver microsomes, 1 μM test compound, 37° C., pH 7.4
Protocol: Human Microsomal Stability Assay
Human liver microsomes (Cat. NO.: 452117, Corning, USA) were preincubated with test compound for 10 minutes at 37° C. in 100 mM potassium phosphate buffer, pH 7.4. The reactions were initiated by adding NADPH regenerating system. The final incubation mixtures contained 1 μM test compound, 0.5 mg/mL liver microsomal protein, 1 mM MgCl2, 1 mM NADP, 1 unit/mL isocitric dehydrogenase and 6 mM isocitric acid in 100 mM potassium phosphate buffer, pH 7.4. After incubation times of 0, 3, 6, 9, 15 and 30 minutes at 37° C., 300 μL of cold ACN (including internal standard) was added to 100 μL incubation mixture to terminate the reaction. Following precipitation and centrifugation, 100 μL supernatant will be taken out and added 300 μL water. The amount of compound remaining in the samples was determined by LC-MS/MS. Controls of no NADPH regenerating system at zero and 30 minutes were also prepared and analyzed. The results were categorized as: low (<7.0 mL/min/kg), medium (7.0-16.2 mL/min/kg) and high (16.2-23.2 mL/min/kg).

Chain of human TLR7 (Q9NYK1 27-1049): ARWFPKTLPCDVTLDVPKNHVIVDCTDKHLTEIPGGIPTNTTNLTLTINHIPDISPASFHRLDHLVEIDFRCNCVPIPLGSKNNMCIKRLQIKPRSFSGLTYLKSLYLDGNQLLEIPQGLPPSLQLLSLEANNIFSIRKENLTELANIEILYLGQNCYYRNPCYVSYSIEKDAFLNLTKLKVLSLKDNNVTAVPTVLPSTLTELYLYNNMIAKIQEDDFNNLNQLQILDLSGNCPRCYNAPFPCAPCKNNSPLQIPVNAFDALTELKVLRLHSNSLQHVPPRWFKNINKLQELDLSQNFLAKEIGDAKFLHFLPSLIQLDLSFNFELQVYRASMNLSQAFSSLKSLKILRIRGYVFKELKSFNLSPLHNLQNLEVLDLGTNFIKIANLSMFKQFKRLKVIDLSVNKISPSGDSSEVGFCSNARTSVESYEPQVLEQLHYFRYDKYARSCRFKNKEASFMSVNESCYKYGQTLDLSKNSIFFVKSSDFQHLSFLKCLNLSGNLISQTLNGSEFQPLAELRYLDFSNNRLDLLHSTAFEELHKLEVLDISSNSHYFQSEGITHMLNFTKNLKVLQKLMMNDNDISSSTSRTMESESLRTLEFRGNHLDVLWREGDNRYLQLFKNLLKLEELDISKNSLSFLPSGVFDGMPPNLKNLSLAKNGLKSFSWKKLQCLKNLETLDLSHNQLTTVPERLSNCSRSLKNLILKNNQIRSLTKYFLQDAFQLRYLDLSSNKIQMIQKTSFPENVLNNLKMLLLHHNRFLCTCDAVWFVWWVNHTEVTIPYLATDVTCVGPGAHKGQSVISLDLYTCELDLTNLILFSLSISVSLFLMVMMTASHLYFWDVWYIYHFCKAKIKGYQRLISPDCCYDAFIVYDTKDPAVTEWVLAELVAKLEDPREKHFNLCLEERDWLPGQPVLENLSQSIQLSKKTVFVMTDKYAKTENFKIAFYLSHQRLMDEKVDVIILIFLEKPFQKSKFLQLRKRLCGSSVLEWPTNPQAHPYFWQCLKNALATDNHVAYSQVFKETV

SMILES: C[C@@H]1NCCc2cnc(N[C@@H]3C[C@H]4CN(c5ccc(C#N)c6ncccc56)C[C@@H](C)N4C3)cc21 [Example 9A, 5-[(4R,7R,8aS)-4-methyl-7-[[(5S)-5-methyl-5,6,7,8-tetrahydro-2,6-naphthyridin-3-yl]amino]-3,4,6,7,8,8a-hexahydro-1H-pyrrolo[1,2-a]pyrazin-2-yl]quinoline-8-carbonitrile]
- IC50 [1]: 18.2 nM
- IC50 [2]: 8.6 nM
- IC50 [3]: 65.7 nM
- CL (h) [4]: 8.4 mL/min/kg

SMILES: C[C@@H]1CN(c2ccc(C#N)c3ncccc23)C[C@@H]2C[C@@H](Nc3cc4c(cn3)CCN[C@@H]4C)CN21 [Example 9B, 5-[(4R,7R,8aS)-4-methyl-7-[[(5R)-5-methyl-5,6,7,8-tetrahydro-2,6-naphthyridin-3-yl]amino]-3,4,6,7,8,8a-hexahydro-1H-pyrrolo[1,2-a]pyrazin-2-yl]quinoline-8-carbonitrile]
- IC50 [1]: 13.3 nM
- IC50 [2]: 4.7 nM
- IC50 [3]: 42.1 nM
- CL (h) [4]: 9.6 mL/min/kg

SMILES: [2H]c1ccc2c(N3C[C@@H]4C[C@H](N5CC6CCC(C5)N6)CN4[C@H](C)C3)ccc(C#N)c2n1 [Example 16, 2-Deuterio-5-[(4R,7S,8aS)-7-(3,8-diazabicyclo[3.2.1]octan-3-yl)-4-methyl-3,4,6,7,8,8a-hexahydro-1H-pyrrolo[1,2-a]pyrazin-2-yl]quinoline-8-carbonitrile]
- IC50 [1]: 8.1 nM
- IC50 [2]: 4.7 nM
- IC50 [3]: 40.9 nM
- CL (h) [4]: 7.2 mL/min/kg

SMILES: [2H]c1ccc2c(N3C[C@@H]4C[C@H](N5CC(C)(N)C5)CN4[C@H](C)C3)ccc(C#N)c2n1 [Example 17, 5-[(4R,7S,8aS)-7-(3-amino-3-methyl-azetidin-1-yl)-4-methyl-3,4,6,7,8,8a-hexahydro-1H-pyrrolo[1,2-a]pyrazin-2-yl]-2-deuterio-quinoline-8-carbonitrile]
- IC50 [1]: 11.3 nM
- IC50 [2]: 14.7 nM
- IC50 [3]: 175 nM

SMILES: [2H]c1ccc2c(N3C[C@@H]4C[C@H](N5CCC(C)(N)CC5)CN4[C@H](C)C3)ccc(C#N)c2n1 [Example 18, 5-[(4R,7S,8aS)-7-(4-amino-4-methyl-1-piperidyl)-4-methyl-3,4,6,7,8,8a-hexahydro-1H-pyrrolo[1,2-a]pyrazin-2-yl]-2-deuterio-quinoline-8-carbonitrile]
- IC50 [1]: 16.4 nM
- IC50 [2]: 12.3 nM
- IC50 [3]: 46.7 nM
- CL (h) [4]: 9.8 mL/min/kg

SMILES: [2H]c1ccc2c(N3C[C@@H]4C[C@H](N5CCC(C)(N)C5)CN4[C@H](C)C3)ccc(C#N)c2n1 (stereo partly drawn) [Example 19, 2-Deuterio-5-[(4R,7S,8aS)-7-(3-amino-3-methyl-pyrrolidin-1-yl)-4-methyl-3,4,6,7,8,8a-hexahydro-1H-pyrrolo[1,2-a]pyrazin-2-yl]quinoline-8-carbonitrile]
- IC50 [1]: 19.9 nM
- IC50 [2]: 8.9 nM
- IC50 [3]: 210 nM
- CL (h) [4]: 8.6 mL/min/kg

SMILES: [2H]c1ccc2c(N3C[C@@H]4C[C@H](N5CCC6(CCCNC6)CC5)CN4[C@H](C)C3)ccc(C#N)c2n1 [Example 21, 2-Deuterio-5-[(4R,7S,8aS)-7-(2,9-diazaspiro[5.5]undecan-9-yl)-4-methyl-3,4,6,7,8,8a-hexahydro-1H-pyrrolo[1,2-a]pyrazin-2-yl]quinoline-8-carbonitrile]
- IC50 [1]: 30.4 nM
- IC50 [2]: 10.3 nM
- IC50 [3]: 45.1 nM

The next lines start with the values.

- IC50 [1]: 10.3 nM
- IC50 [2]: 14.5 nM
- IC50 [3]: 32.1 nM
- CL (h) [4]: 8.2 mL/min/kg
SMILES: [2H]c1ccc2c(N3C[C@@H]4C[C@H](N5CC(n6ncc7c6CN[C@H](C)C7)C5)CN4[C@H](C)C3)ccc(C#N)c2n1 [Example 22A, 5-[(4R,7S,8aS)-4-methyl-7-[3-[(5R)-5-methyl-4,5,6,7-tetrahydropyrazolo[3,4-c]pyridin-1-yl]azetidin-1-yl]-3,4,6,7,8,8a-hexahydro-1H-pyrrolo[1,2-a]pyrazin-2-yl]-2-deuterio-quinoline-8-carbonitrile]

- IC50 [1]: 10.5 nM
- IC50 [2]: 13.8 nM
- IC50 [3]: 407 nM
- CL (h) [4]: 8.1 mL/min/kg
SMILES: [2H]c1ccc2c(N3C[C@@H]4C[C@H](n5ncc6c5CNCC6)CN4[C@H](C)C3)ccc(C#N)c2n1 [Example 23A, 2-Deuterio-5-[(4R,7S,8aS)-4-methyl-7-(4,5,6,7-tetrahydropyrazolo[3,4-c]pyridin-1-yl)-3,4,6,7,8,8a-hexahydro-1H-pyrrolo[1,2-a]pyrazin-2-yl]quinoline-8-carbonitrile]

- IC50 [1]: 12 nM
- IC50 [2]: 3.4 nM
- IC50 [3]: 154 nM
- CL (h) [4]: 6.2 mL/min/kg
SMILES: [2H]c1ccc2c(N3C[C@@H]4C[C@H](n5cc6c(n5)CNCC6)CN4[C@H](C)C3)ccc(C#N)c2n1 [Example 23B, 2-deuterio-5-[(4R,7S,8aS)-4-methyl-7-(4,5,6,7-tetrahydropyrazolo[3,4-c]pyridin-2-yl)-3,4,6,7,8,8a-hexahydro-1H-pyrrolo[1,2-a]pyrazin-2-yl]quinoline-8-carbonitrile]
